Measurements from patent US20240269146A1, “USE OF PELABRESIB FOR TREATING ANEMIAS” (Constellation Pharmaceuticals, Inc., priority 2021, published 2024).
“Also recorded” adds a separate entry of the source.

Experiment: Pelabresib Form A monohydrate administered to human subjects with myelofibrosis, with or without ruxolitinib (FIG. 1)
Type: in vivo
Settings: median starting dose 125 mg QD, max 225 mg QD, median duration 47 weeks
Protocol: Pelabresib Form A monohydrate was administered to human subjects (with or without ruxolitinib) with a median starting dose of 125 mg QD and a max dose of 225 mg QD for a median duration of 47 weeks. The results of this study are shown in FIG. 1 (Arm 1 being pelabresib Form A and Arm 2 being pelabresib Form A in combination with ruxolitinib).

Which hemoglobin does the source give for `Cc1noc2c1-c1ccccc1C(c1ccc(Cl)cc1)=N[C@H]2CC(N)=O` [pelabresib, 2-((4S)-6-(4-chlorophenyl)-1-methyl-4H-benzo[c]isoxazolo[4,5-e]azepin-4-yl)acetamide] here?
The hemoglobin was “improving hemoglobin”.

And the “reticulocyte count (number of reticulocytes)” value?
Its value is “increases the number of reticulocytes; also recorded: effective in increasing reticulocytes”.
